Experimental data as given in patent US6794397B2, “Substituted nicotinamides and analogs as activators of caspases and inducers of apoptosis and the use thereof” (Cytovia, Inc., priority 2000, dated 2004).
Read-outs that look alike come from different tables or passages of the source.

Experiments:
[1] = test system: T47D; assay: Caspase cascade activation assay (N-(Ac-DEVD)-N'-ethoxycarbonyl-R110 fluorogenic substrate) in T47D cells; assay type: cell-based, Human; conditions: 24 h incubation; for EC50 (nM) caspase potency / EC50: sigmoidal dose-response; for Caspase activity Ratio: ratio of net RFU of test compound to control, 0.16 to 10 μM final; for EC50: read-out: EC50 (nM) caspase potency
Procedure: (§1) Human breast cancer cell lines T47D and ZR75-1 were grown according to media component mixtures designated by American Type Culture Collection +10% FCS (Invitrogen Corporation, Life Technologies Division), in a 5% CO2 −95% humidity incubator at 37° C. T47D and ZR75-1 cells were maintained at a cell density between 30 and 80% confluency at a cell density of 0.1 to 0.6×10^6 cells/ml. Cells were harvested at 600xg and resuspended at 0.65×10^6 cells/ml into appropriate media +10% FCS. An aliquot of 45 μl of cells was added to a well of a 96-well microtiter plate containing 5 μl of a 10% DMSO in RPMI-1640 media solution containing 1.6 to 100 μM of N-(4-methoxy-2-nitrophenyl)-3-pyridinecarboxamide or other test compound (0.16 to 10 μM final). An aliquot of 45 μl of cells was added to a well of a 96-well microtiter plate containing 5 μl of a 10% DMSO in RPMI-1640 media solution without test compound as the control sample. The samples were mixed by agitation and then incubated at 37 C. for 24 h in a 5% CO2 −95% humidity incubator. After incubation, the samples were removed from the incubator and 50 μl of a solution containing 20 μM of N-(Ac-DEVD)-N′-ethoxycarbonyl-R110 (SEQ ID NO: 1) fluorogenic substrate (Cytovia, Inc.; WO99/18856), 20% sucrose (Sigma), 20 mM DTT (Sigma), 200 mM NaCl (Sigma), 40 mM Na PIPES buffer pH 7.2 (Sigma), and 500 μg/ml lysolecithin (Calbiochem) was added. The samples were mixed by agitation and incubated at room temperature. Using a fluorescent plate reader (Model 1420 Wallac Instruments), an initial reading (T=0) was made approximately 1-2 min after addition of the substrate solution, employing excitation at 485 nm and emission at 530 nm, to determine the background fluorescence of the control sample. After the 3 h incubation, the samples were read for fluorescence as above (T=3 h).
(§2) The Relative Fluorescence Unit values (RFU) were used to calculate the sample readings as follows:
(§3) RFU(T=3h)−Control RFU(T=0)=Net RFU(T=3h).
(§4) The activity of caspase cascade activation was determined by the ratio of the net RFU value for N-(4-methoxy-2-nitrophenyl)-3-pyridinecarboxamide or other test compound to that of control samples. The EC50 (nM) was determined by a sigmoidal dose-response calculation (Prism 2.0, GraphPad Software Inc.).

[2] = test system: ZR75-1; assay: Caspase cascade activation assay (N-(Ac-DEVD)-N'-ethoxycarbonyl-R110 fluorogenic substrate) in ZR75-1 cells; assay type: cell-based, Human; conditions: for EC50 (nM) caspase potency / EC50: sigmoidal dose-response; for Caspase activity Ratio: ratio of net RFU of test compound to control, 0.16 to 10 μM final; for EC50: read-out: EC50 (nM) caspase potency
Procedure: as §1, §2, §3, §4

[3] = Homo sapiens, ZR-75-1, 24 h incubation

CCOc1ccc(N(C)C(=O)c2ccc(Cl)nc2)c([N+](=O)[O-])c1 [Example 30, 6-Chloro-N-(4-ethoxy-2-nitrophenyl)-N-methyl-3-pyridinecarboxamide]
EC50 (nM) caspase potency [1]: Inactive | Caspase activity Ratio [1]: Inactive | EC50 (nM) caspase potency ([2]; 24 h incubation): Inactive | Caspase activity Ratio ([2]; 24 h incubation): Inactive

COc1ccc(NC(=O)c2ccc(Cl)[n+]([O-])c2)c([N+](=O)[O-])c1 [Example 28, 6-Chloro-N-(4-methoxy-2-nitrophenyl)-1-N-oxide-3-pyridinecarboxamide]
EC50 [1]: 7330 nM | Caspase activity Ratio [1]: 2.4 | EC50 ([2]; 24 h incubation): 4510 nM | Caspase activity Ratio ([2]; 24 h incubation): 5.1

COc1cc([N+](=O)[O-])c(NC(=O)c2ccc(Cl)nc2)cc1Br [Example 4, 6-Chloro-N-(3-bromo-4-methoxy-6-nitrophenyl)-3-pyridinecarboxamide]
EC50 (nM) caspase potency [1]: Inactive | Caspase activity Ratio [1]: Inactive | EC50 [2, 3]: 4030 nM | Caspase activity Ratio ([2]; 24 h incubation): 3.2

COc1ccc(NC(=O)c2ccc(Cl)nc2Cl)c([N+](=O)[O-])c1 [Example 15, 2,6-Dichloro-N-(4-methoxy-2-nitrophenyl)-3-pyridinecarboxamide]
EC50 (nM) caspase potency [1]: Inactive | Caspase activity Ratio [1]: Inactive | EC50 (nM) caspase potency ([2]; 24 h incubation): Inactive | Caspase activity Ratio ([2]; 24 h incubation): Inactive

COc1ccc(NC(=O)c2ccc(Cl)nc2)c([N+](=O)[O-])c1 [Example 7, 6-Chloro-N-(4-methoxy-2-nitrophenyl)-3-pyridinecarboxamide]
EC50 ([1]; Homo sapiens): 593 nM | Caspase activity Ratio [1]: 8.1 | EC50 [2, 3]: 230 nM | Caspase activity Ratio ([2]; 24 h incubation): 2.7

O=C(Nc1ccc(OCc2ccccc2)cc1[N+](=O)[O-])c1ccc(Cl)nc1 [Example 25, 6-Chloro-N-(4-benzyloxy-2-nitrophenyl)-3-pyridinecarboxamide]
EC50 ([1]; Homo sapiens): 345 nM | Caspase activity Ratio [1]: 5.8 | EC50 [2, 3]: 133 nM | Caspase activity Ratio ([2]; 24 h incubation): 6.6

O=C(Nc1ccc(C(=O)c2ccccc2)cc1[N+](=O)[O-])c1ccc(Cl)nc1 [Example 24, 6-Chloro-N-(4-benzoyl-2-nitrophenyl)-3-pyridinecarboxamide]
EC50 (nM) caspase potency [1]: Inactive | Caspase activity Ratio [1]: Inactive | EC50 (nM) caspase potency ([2]; 24 h incubation): Inactive | Caspase activity Ratio ([2]; 24 h incubation): Inactive

CCOc1ccc(NC(=O)c2ccc(C)nc2)c([N+](=O)[O-])c1 [Example 26, 6-Methyl-N-(4-ethoxy-2-nitrophenyl)-3-pyridinecarboxamide]
EC50 ([1]; Homo sapiens): 42 nM | Caspase activity Ratio [1]: 5.5 | EC50 [2, 3]: 20 nM | Caspase activity Ratio ([2]; 24 h incubation): 3.2

O=C(Nc1ccc(C(F)(F)F)cc1[N+](=O)[O-])c1ccc(Cl)nc1 [Example 1, 6-Chloro-N-(2-nitro-4-trifluoromethylphenyl)-3-pyridinecarboxamide]
EC50 ([1]; Homo sapiens): 2970 nM | Caspase activity Ratio [1]: 8.9 | EC50 [2, 3]: 729 nM | Caspase activity Ratio ([2]; 24 h incubation): 3.6

COc1ccc(NC(=O)c2cnc(Cl)nc2C(F)(F)F)c([N+](=O)[O-])c1 [Example 13, 2-Chloro-4trifluoromethyl-N-(4methoxy-2-nitrophenyl)-5-pyrimidinecarboxamide]
EC50 (nM) caspase potency [1]: Inactive | Caspase activity Ratio [1]: Inactive | EC50 (nM) caspase potency ([2]; 24 h incubation): Inactive | Caspase activity Ratio ([2]; 24 h incubation): Inactive

COc1ccc(NC(=O)c2cccnc2Cl)c([N+](=O)[O-])c1 [Example 6, 2-Chloro-N-(4-methoxy-2-nitrophenyl)-3-pyridinecarboxamide]
EC50 (nM) caspase potency [1]: Inactive | Caspase activity Ratio [1]: Inactive | EC50 (nM) caspase potency ([2]; 24 h incubation): Inactive | Caspase activity Ratio ([2]; 24 h incubation): Inactive

O=C(Nc1ccccc1[N+](=O)[O-])c1ccc(Cl)nc1 [Example 10, 6-Chloro-N-(2-nitrophenyl)-3-pyridinecarboxamide]
EC50 (nM) caspase potency [1]: Inactive | Caspase activity Ratio [1]: Inactive | EC50 (nM) caspase potency ([2]; 24 h incubation): Inactive | Caspase activity Ratio ([2]; 24 h incubation): Inactive

CCOc1ccc(NC(=O)c2ccc(F)nc2)c([N+](=O)[O-])c1 [Example 22, 6-Fluoro-N-(4-ethoxy-2-nitrophenyl)-3-pyridinecarboxamide]
EC50 ([1]; Homo sapiens): 466 nM | Caspase activity Ratio [1]: 7.6 | EC50 [2, 3]: 295 nM | Caspase activity Ratio ([2]; 24 h incubation): 6.6

Cc1ccc(NC(=O)c2ccc(Cl)nc2)c([N+](=O)[O-])c1 [Example 9, 6-Chloro-N-(4-methyl-2-nitrophenyl)-3-pyridinecarboxamide]
EC50 ([1]; Homo sapiens): 920 nM | Caspase activity Ratio [1]: 5.4 | EC50 [2, 3]: 488 nM | Caspase activity Ratio ([2]; 24 h incubation): 5.0

O=C(Nc1ccc([N+](=O)[O-])cc1[N+](=O)[O-])c1ccc(Cl)nc1 [Example 17, 6-Chloro-N-(2,4-dinitrophenyl)-3-pyridinecarboxamide]
EC50 (nM) caspase potency [1]: Inactive | Caspase activity Ratio [1]: Inactive | EC50 (nM) caspase potency ([2]; 24 h incubation): Inactive | Caspase activity Ratio ([2]; 24 h incubation): Inactive

COc1ccc(NC(=O)c2cnc(Cl)c(Cl)c2)c([N+](=O)[O-])c1 [Example 16, 5,6-Dichloro-N-(4-methoxy-2-nitrophenyl)-3-pyridinecarboxamide]
EC50 (nM) caspase potency [1]: Inactive | Caspase activity Ratio [1]: Inactive | EC50 (nM) caspase potency ([2]; 24 h incubation): Inactive | Caspase activity Ratio ([2]; 24 h incubation): Inactive

COc1ccc(NC(=O)c2ccncc2)c([N+](=O)[O-])c1 [Example 14, N-(4-methoxy-2-nitrophenyl)-4-pyridinecarboxamide]
EC50 (nM) caspase potency [1]: Inactive | Caspase activity Ratio [1]: Inactive | EC50 (nM) caspase potency ([2]; 24 h incubation): Inactive | Caspase activity Ratio ([2]; 24 h incubation): Inactive

COc1ccc(NC(=O)c2ccc(Cl)nc2)c(OC)c1 [Example 5, 6-Chloro-N-(2,4-dimethoxyphenyl)-3-pyridinecarboxamide]
EC50 (nM) caspase potency [1]: Inactive | Caspase activity Ratio [1]: Inactive | EC50 (nM) caspase potency ([2]; 24 h incubation): Inactive | Caspase activity Ratio ([2]; 24 h incubation): Inactive

O=C(Nc1ccc(Cl)cc1[N+](=O)[O-])c1ccc(Cl)nc1 [Example 2, 6-Chloro-N-(4-chloro-2-nitrophenyl)-3-pyridinecarboxamide]
EC50 ([1]; Homo sapiens): 587 nM | Caspase activity Ratio [1]: 7.8 | EC50 [2, 3]: 329 nM | Caspase activity Ratio ([2]; 24 h incubation): 5.8

O=C(Nc1ccc(F)cc1[N+](=O)[O-])c1ccc(Cl)nc1 [Example 3, 6-Chloro-N-(4-fluoro-2-nitrophenyl)-3-pyridinecarboxamide]
EC50 (nM) caspase potency [1]: Inactive | Caspase activity Ratio [1]: Inactive | EC50 [2, 3]: 4620 nM | Caspase activity Ratio ([2]; 24 h incubation): 2.1

COc1ccc(NC(=O)c2cc(Cl)nc(Cl)c2)c([N+](=O)[O-])c1 [Example 12, 2,6-Dichloro-N-(4-methoxy-2-nitrophenyl)-4-pyridinecarboxamide]
EC50 (nM) caspase potency [1]: Inactive | Caspase activity Ratio [1]: Inactive | EC50 (nM) caspase potency ([2]; 24 h incubation): Inactive | Caspase activity Ratio ([2]; 24 h incubation): Inactive

4-Chloro-N-(4-ethoxy-2-nitrophenyl)-benzoylamide [Example 18]
EC50 [1]: 6750 nM | Caspase activity Ratio [1]: 3.0 | EC50 ([2]; 24 h incubation): 3840 nM | Caspase activity Ratio ([2]; 24 h incubation): 5.1
